Data as given in patent publication US9034793B2, “Use of ribose to enhance plant growth” (Bioenergy, Inc., priority 2002, dated 2015).

Tested on: bean seeds
Experiment: Plant growth and yield from bean seeds, daylight or darkness (Example 2)
Format: in vivo
Description: Three different treatments were explored on bean seeds to determine the effects of ribose (at two different doses) on plant growth and proliferation. [The three treatments include control (plain water), a 0.1332 M solution of ribose (5 g D-ribose dissolved in 250 ml water), and a 0.0666 M solution of ribose (5 g D-ribose dissolved in 500 ml water)]. The plants were kept under two different conditions, normal daylight and darkness. A total of six plants will be tested, with the conditions that each plant were tested at listed below. Treatments: [table] Each seed was planted under identical conditions (soil and pot size) and all at the same time. The environmental conditions (such as temperature and humidity), except for lighting, were kept constant for all the plants. Once potted, each seed received one to two tablespoons of treatment liquid (as mentioned above). A daily record was kept of the activity of each plant. Watering was done on every other day (or sooner if the soil was deemed too dry by the researcher), each again receiving one tablespoon of treatment liquid. Assessment of the effects of ribose fertilization was determined by measuring the time to the first appearance of a plant from the soil, the rate of growth, and leaf size. Table 3 represents the accumulated plant growth data from Example 2 and FIGS. 3 and 4 are graphic presentations of plant growth during light and dark conditions.

O=C[C@H](O)[C@H](O)[C@H](O)CO [5/500, D-ribose]
Amount of Growth Between Measurements (Dark, Day 0 (17-Sep)): 0 | Plant growth-height (Dark, Day 0 (17-Sep)): 0 | Rate of Growth Between Measurements (Dark, Day 0 (17-Sep)): 0 | Amount of Growth Between Measurements (Dark, Day 3 (20-Sep)): 0 | Plant growth-height (Dark, Day 3 (20-Sep)): 0 | Rate of Growth Between Measurements (Dark, Day 3 (20-Sep)): 0 | Amount of Growth Between Measurements (Dark, Day 5 (22-Sep)): 0 | Plant growth-height (Dark, Day 5 (22-Sep)): 0 | Rate of Growth Between Measurements (Dark, Day 5 (22-Sep)): 0 | Rate of Growth Overall Thru Date (Dark, Day 5 (22-Sep)): 0 | Amount of Growth Between Measurements (Dark, Day 7 (24-Sep)): 5.2 | Plant growth-height (Dark, Day 7 (24-Sep)): 5.2 | Rate of Growth Between Measurements (Dark, Day 7 (24-Sep)): 2.60 | Rate of Growth Overall Thru Date (Dark, Day 7 (24-Sep)): 0.74 | Amount of Growth Between Measurements (Dark, Day 8 (25-Sep)): 5.9 | Plant growth-height (Dark, Day 8 (25-Sep)): 11.1 | Rate of Growth Between Measurements (Dark, Day 8 (25-Sep)): 5.90 | Rate of Growth Overall Thru Date (Dark, Day 8 (25-Sep)): 1.39 | Amount of Growth Between Measurements (Dark, Day 9 (26-Sep)): 9.7 | Plant growth-height (Dark, Day 9 (26-Sep)): 20.8 | Rate of Growth Between Measurements (Dark, Day 9 (26-Sep)): 9.70 | Rate of Growth Overall Thru Date (Dark, Day 9 (26-Sep)): 2.31 | Amount of Growth Between Measurements (Dark, Day 10 (27-Sep)): 9.8 | Plant growth-height (Dark, Day 10 (27-Sep)): 30.6 | Rate of Growth Between Measurements (Dark, Day 10 (27-Sep)): 9.80 | Rate of Growth Overall Thru Date (Dark, Day 10 (27-Sep)): 3.06 | Amount of Growth Between Measurements (Dark, Day 11 (28-Sep)): 5.2 | Plant growth-height (Dark, Day 11 (28-Sep)): 35.8 | Rate of Growth Between Measurements (Dark, Day 11 (28-Sep)): 5.20 | Rate of Growth Overall Thru Date (Dark, Day 11 (28-Sep)): 3.25 | Amount of Growth Between Measurements (Dark, Day 12 (29-Sep)): 3.5 | Plant growth-height (Dark, Day 12 (29-Sep)): 39.3 | Rate of Growth Between Measurements (Dark, Day 12 (29-Sep)): 3.50 | Rate of Growth Overall Thru Date (Dark, Day 12 (29-Sep)): 3.28 | Amount of Growth Between Measurements (Dark, Day 13 (30-Sep)): 5.5 | Plant growth-height (Dark, Day 13 (30-Sep)): 44.8 | Rate of Growth Between Measurements (Dark, Day 13 (30-Sep)): 5.50 | Rate of Growth Overall Thru Date (Dark, Day 13 (30-Sep)): 3.45 | Amount of Growth Between Measurements (Dark, Day 16 (3-Oct)): 2 | Plant growth-height (Dark, Day 16 (3-Oct)): 46.8 | Rate of Growth Between Measurements (Dark, Day 16 (3-Oct)): 0.67 | Rate of Growth Overall Thru Date (Dark, Day 16 (3-Oct)): 2.93 | Amount of Growth Between Measurements (Dark, Day 19 (6-Oct)): 0 | Plant growth-height (Dark, Day 19 (6-Oct)): 46.8 | Rate of Growth Between Measurements (Dark, Day 19 (6-Oct)): 0.00 | Rate of Growth Overall Thru Date (Dark, Day 19 (6-Oct)): 2.46 | Amount of Growth Between Measurements (Light, Day 0 (17-Sep)): 0 | Plant growth-height (Light, Day 0 (17-Sep)): 0 | Rate of Growth Between Measurements (Light, Day 0 (17-Sep)): 0 | Amount of Growth Between Measurements (Light, Day 3 (20-Sep)): 0 | Plant growth-height (Light, Day 3 (20-Sep)): 0 | Rate of Growth Between Measurements (Light, Day 3 (20-Sep)): 0 | Amount of Growth Between Measurements (Light, Day 5 (22-Sep)): 0 | Plant growth-height (Light, Day 5 (22-Sep)): 0 | Rate of Growth Between Measurements (Light, Day 5 (22-Sep)): 0 | Rate of Growth Overall Thru Date (Light, Day 5 (22-Sep)): 0 | Amount of Growth Between Measurements (Light, Day 7 (24-Sep)): 0 | Plant growth-height (Light, Day 7 (24-Sep)): 0 | Rate of Growth Between Measurements (Light, Day 7 (24-Sep)): 0 | Rate of Growth Overall Thru Date (Light, Day 7 (24-Sep)): 0.00 | Amount of Growth Between Measurements (Light, Day 8 (25-Sep)): 0.5 | Plant growth-height (Light, Day 8 (25-Sep)): 0.5 | Rate of Growth Between Measurements (Light, Day 8 (25-Sep)): 0.50 | Rate of Growth Overall Thru Date (Light, Day 8 (25-Sep)): 0.06 | Amount of Growth Between Measurements (Light, Day 9 (26-Sep)): 1.6 | Plant growth-height (Light, Day 9 (26-Sep)): 2.1 | Rate of Growth Between Measurements (Light, Day 9 (26-Sep)): 1.60 | Rate of Growth Overall Thru Date (Light, Day 9 (26-Sep)): 0.23 | Amount of Growth Between Measurements (Light, Day 10 (27-Sep)): 8.4 | Plant growth-height (Light, Day 10 (27-Sep)): 10.5 | Rate of Growth Between Measurements (Light, Day 10 (27-Sep)): 8.40 | Rate of Growth Overall Thru Date (Light, Day 10 (27-Sep)): 1.05 | Amount of Growth Between Measurements (Light, Day 11 (28-Sep)): 6.1 | Plant growth-height (Light, Day 11 (28-Sep)): 16.6 | Rate of Growth Between Measurements (Light, Day 11 (28-Sep)): 6.10 | Rate of Growth Overall Thru Date (Light, Day 11 (28-Sep)): 1.51 | Amount of Growth Between Measurements (Light, Day 12 (29-Sep)): 5.9 | Plant growth-height (Light, Day 12 (29-Sep)): 22.5 | Rate of Growth Between Measurements (Light, Day 12 (29-Sep)): 5.90 | Rate of Growth Overall Thru Date (Light, Day 12 (29-Sep)): 1.88 | Amount of Growth Between Measurements (Light, Day 13 (30-Sep)): 3.8 | Plant growth-height (Light, Day 13 (30-Sep)): 26.3 | Rate of Growth Between Measurements (Light, Day 13 (30-Sep)): 3.80 | Rate of Growth Overall Thru Date (Light, Day 13 (30-Sep)): 2.02 | Amount of Growth Between Measurements (Light, Day 16 (3-Oct)): 2.1 | Plant growth-height (Light, Day 16 (3-Oct)): 28.4 | Rate of Growth Between Measurements (Light, Day 16 (3-Oct)): 0.70 | Rate of Growth Overall Thru Date (Light, Day 16 (3-Oct)): 1.78 | Amount of Growth Between Measurements (Light, Day 19 (6-Oct)): 0.6 | Plant growth-height (Light, Day 19 (6-Oct)): 29 | Rate of Growth Between Measurements (Light, Day 19 (6-Oct)): 0.20 | Rate of Growth Overall Thru Date (Light, Day 19 (6-Oct)): 1.53
